# PubChem BioAssay AID330 (DTP/NCI, 2004)
# Several values for one entry are separate records, joined by “and”; a condition that tells them apart may be missing. Identical values can stand only once. Toxic doses and inconclusive results are not listed.
# Test system: P388 leukemia ip, CD2F1 mice, survival T/C
# Assay: NCI In Vivo Anticancer Drug Screen. Data for tumor model P388 Leukemia (intraperitoneal) in CD2F1 (CDF1) mice
# Settings: endpoint: median survival time, higher = longer survival
# Procedure, shortened: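 Mice carrying the transplanted tumor received test compound or vehicle. Survival was recorded in each group, and the value is the treated-group measurement divided by that of the vehicle-treated control group.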
# [1] = dose: 100.0 mg/kg/injection, schedule: Q04DX002 (ip), vehicle: saline with Tween-80
# [2] = dose: 200.0 mg/kg/injection, schedule: Q04DX002 (ip), vehicle: saline with Tween-80
# [3] = dose: 25.0 mg/kg/injection, schedule: Q04DX003 (ip), vehicle: saline with Tween-80
# [4] = dose: 50.0 mg/kg/injection, schedule: Q04DX003 (ip), vehicle: saline with Tween-80
# [5] = dose: 100.0 mg/kg/injection, schedule: Q04DX003 (ip), vehicle: saline with Tween-80
# [6] = dose: 6.25 mg/kg/injection, schedule: Q01DX009 (ip), vehicle: saline with Tween-80
# [7] = dose: 12.5 mg/kg/injection, schedule: Q01DX009 (ip), vehicle: saline with Tween-80
# [8] = dose: 50.0 mg/kg/injection, schedule: Q01DX005 (ip), vehicle: Klucel (hydroxypropylcellulose) (HPC)
# [9] = dose: 100.0 mg/kg/injection, schedule: Q01DX005 (ip), vehicle: Klucel (hydroxypropylcellulose) (HPC)
# [10] = dose: 200.0 mg/kg/injection, schedule: Q01DX005 (ip), vehicle: Klucel (hydroxypropylcellulose) (HPC)
# [11] = dose: 100.0 mg/kg/injection, schedule: Q01DX001 (ip), vehicle: saline with Tween-80
# [12] = dose: 200.0 mg/kg/injection, schedule: Q01DX001 (ip), vehicle: saline with Tween-80
# [13] = dose: 400.0 mg/kg/injection, schedule: Q01DX001 (ip), vehicle: saline with Tween-80
# [14] = dose: 100.0 mg/kg/injection, schedule: Q01DX009 (ip), vehicle: saline
# [15] = dose: 200.0 mg/kg/injection, schedule: Q01DX009 (ip), vehicle: saline
# [16] = dose: 120.0 mg/kg/injection, schedule: Q01DX005 (ip), vehicle: saline with Tween-80
# [17] = dose: 240.0 mg/kg/injection, schedule: Q01DX005 (ip), vehicle: saline with Tween-80
# [18] = dose: 60.0 mg/kg/injection, schedule: Q01DX005 (ip), vehicle: saline with Tween-80
# [19] = dose: 50.0 mg/kg/injection, schedule: Q01DX009 (ip), vehicle: Klucel (hydroxypropylcellulose) (HPC)
# [20] = dose: 25.0 mg/kg/injection, schedule: Q01DX009 (ip), vehicle: saline with Tween-80
# [21] = dose: 50.0 mg/kg/injection, schedule: Q01DX009 (ip), vehicle: saline with Tween-80
# [22] = dose: 100.0 mg/kg/injection, schedule: Q01DX009 (ip), vehicle: saline with Tween-80
# [23] = dose: 200.0 mg/kg/injection, schedule: Q04DX003 (ip), vehicle: saline with Tween-80
# [24] = dose: 12.5 mg/kg/injection, schedule: Q01DX009 (ip), vehicle: Klucel (hydroxypropylcellulose) (HPC)
# [25] = dose: 25.0 mg/kg/injection, schedule: Q01DX009 (ip), vehicle: Klucel (hydroxypropylcellulose) (HPC)
compound,measurement,setting,value
COC(=O)c1nc(SC)[nH]c1CC#N,T/C,[1],108 % of control
same,T/C,[2],98 % of control
same,T/C,"dose: 400.0 mg/kg/injection, schedule: Q04DX002 (ip), vehicle: saline with Tween-80",99 % of control
COc1cc(/C=C(/C)[N+](=O)[O-])cc(Br)c1OC,T/C,[3],108 % of control
same,T/C,[4],109 % of control
same,T/C,[5],109 % of control
CCOC(=O)c1sc(SSc2sc(C(=O)OCC)c(C)c2[N+](=O)[O-])c([N+](=O)[O-])c1C,T/C,"dose: 1.56 mg/kg/injection, schedule: Q01DX009 (ip), vehicle: saline with Tween-80",94 % of control
same,T/C,"dose: 3.12 mg/kg/injection, schedule: Q01DX009 (ip), vehicle: saline with Tween-80",101 % of control
same,T/C,[6],93 % of control
same,T/C,[7],88 % of control
same,T/C,[3],102 % of control
same,T/C,[4],93 % of control
same,T/C,[5],86 % of control and 97 % of control
CC(=O)Oc1cc(C)c2c(c1C)C1OC(=O)C(C)C1CC2 (stereo not drawn),T/C,[8],100 % of control
same,T/C,[9],103 % of control
same,T/C,[10],98 % of control
CC(C)CC(NC(=O)C(C)N)C(=O)NC(C)C(=O)NC1C(O)OC(CO)C(O)C1O (stereo not drawn),T/C,[11],100 % of control
same,T/C,[12],97 % of control
same,T/C,[13],91 % of control
Nc1ccc(-c2nnc(-c3ccc(N)cc3)nn2)cc1,T/C,"dose: 100.0 mg/kg/injection, schedule: Q01DX001 (ip), vehicle: saline",94 % of control
same,T/C,"dose: 200.0 mg/kg/injection, schedule: Q01DX001 (ip), vehicle: saline",92 % of control
same,T/C,"dose: 400.0 mg/kg/injection, schedule: Q01DX001 (ip), vehicle: saline",95 % of control
CCCCN(N=O)C(C)=O,T/C,[1],101 % of control
same,T/C,[2],98 % of control
COc1c2occc2c(OC)c2/c(=N/O)cc(C)oc12,T/C,"dose: 50.0 mg/kg/injection, schedule: Q01DX009 (ip), vehicle: saline",107 % of control
same,T/C,[14],98 % of control
same,T/C,[15],97 % of control
COc1cc2cc3cc(-c4ccc(Cl)cc4)c(N4CCOCC4)nc3nc2cc1OC,T/C,"dose: 15.0 mg/kg/injection, schedule: Q01DX005 (ip), vehicle: saline with Tween-80",92 % of control
same,T/C,"dose: 30.0 mg/kg/injection, schedule: Q01DX005 (ip), vehicle: saline with Tween-80",93 % of control
same,T/C,[16],91 % of control
same,T/C,[17],93 % of control
Cc1cc(N(C)C)ccc1/C=C/c1ccnc2ccccc12,T/C,"dose: 25.0 mg/kg/injection, schedule: Q04DX002 (ip), vehicle: saline with Tween-80",109 % of control
same,T/C,"dose: 50.0 mg/kg/injection, schedule: Q04DX002 (ip), vehicle: saline with Tween-80",118 % of control
same,T/C,[1],113 % of control
N#CCc1nc2ncc(Br)cc2[nH]1,T/C,[11],100 % of control
same,T/C,[12],104 % of control
same,T/C,[13],100 % of control
COc1cc(C(CC(C)=O)c2cc3c(cc2OC(C)=O)OCO3)cc(OC)c1OC(C)=O (stereo not drawn),T/C,[18],105 % of control
same,T/C,[16],89 % of control
OC(CCC1OCCO1)(CCC1OCCO1)c1ccccc1,T/C,[19],97 % of control
same,T/C,"dose: 100.0 mg/kg/injection, schedule: Q01DX009 (ip), vehicle: Klucel (hydroxypropylcellulose) (HPC)",103 % of control
same,T/C,"dose: 200.0 mg/kg/injection, schedule: Q01DX009 (ip), vehicle: Klucel (hydroxypropylcellulose) (HPC)",93 % of control
CC(C)(C)C(=O)CC(=O)C(F)(F)C(F)(F)C(F)(F)F.[Ag],T/C,[6],119 % of control
same,T/C,[7],119 % of control
same,T/C,[20],114 % of control
Cc1ccc([SeH])cc1.[Sn],T/C,[20],92 % of control
same,T/C,[21],94 % of control
same,T/C,[22],86 % of control
CC(=O)OCC1OC(n2cnc3c2N=CN2C(CCl)=CC(=O)NC32)C(OC(C)=O)C1OC(C)=O (stereo not drawn),T/C,[11],103 % of control
same,T/C,[12],103 % of control
same,T/C,[13],110 % of control
O=c1[nH]c(=O)c2nc(-c3ccc(Cl)cc3)cnc2[nH]1,T/C,[5],94 % of control
same,T/C,[23],102 % of control
same,T/C,"dose: 400.0 mg/kg/injection, schedule: Q04DX003 (ip), vehicle: saline with Tween-80",101 % of control
C1CCC2[N-]CC3CCCCC3[N-]CC3CCCCC3[N-]CC3CCCCC3[N-]CC2C1.[Cu+2].[O-][Cl+3]([O-])([O-])O (stereo not drawn),T/C,"dose: 0.78 mg/kg/injection, schedule: Q01DX009 (ip), vehicle: Klucel (hydroxypropylcellulose) (HPC)",117 % of control
same,T/C,[6],152 % of control
same,T/C,"dose: 8.0 mg/kg/injection, schedule: Q01DX009 (ip), vehicle: saline with Tween-80",154 % of control
same,T/C,[24],87 % of control
same,T/C,[7],158 % of control
same,T/C,[25],87 % of control
CCOC(=O)/C(C#N)=C/Nc1ccncc1,T/C,[21],95 % of control
same,T/C,[22],87 % of control
CC(=O)OCC1OC(n2ccc(N)nc2=O)C(OC(C)=O)C1OC(C)=O (stereo not drawn),T/C,[14],162 % of control
same,T/C,[15],178 % of control
O=C(NCCCl)Oc1ccc(Cl)cc1Cl,T/C,"dose: 12.5 mg/kg/injection, schedule: Q01DX005 (ip), vehicle: Klucel (hydroxypropylcellulose) (HPC)",100 % of control
same,T/C,"dose: 25.0 mg/kg/injection, schedule: Q01DX005 (ip), vehicle: Klucel (hydroxypropylcellulose) (HPC)",106 % of control
same,T/C,[8],108 % of control and 113 % of control
CC1=CCc2c(c(NS(=O)(=O)c3ccccc3)c3ccccc3c2NS(=O)(=O)c2ccccc2)C1,T/C,"dose: 25.0 mg/kg/injection, schedule: Q01DX001 (ip), vehicle: saline with Tween-80",105 % of control
same,T/C,"dose: 50.0 mg/kg/injection, schedule: Q01DX001 (ip), vehicle: saline with Tween-80",90 % of control
same,T/C,[11],90 % of control
Cc1ccc(C)c(C(O)C2CC2)c1 (stereo not drawn),T/C,[5],100 % of control
same,T/C,[23],104 % of control
Cn1nc(C#N)c(=O)[nH]c1=O,T/C,"dose: 12.5 mg/kg/injection, schedule: Q01DX005 (ip), vehicle: saline with Tween-80",99 % of control
same,T/C,"dose: 25.0 mg/kg/injection, schedule: Q01DX005 (ip), vehicle: saline with Tween-80",97 % of control
same,T/C,"dose: 50.0 mg/kg/injection, schedule: Q01DX005 (ip), vehicle: saline with Tween-80",99 % of control and 100 % of control
CC1(C)OC2(c3ccccc3)N(c3ccc([N+](=O)[O-])cc3)N=C(c3ccccc3)N2c2ccccc21 (stereo not drawn),T/C,[11],89 % of control
same,T/C,[12],89 % of control
same,T/C,[13],88 % of control
O=C(O)c1ccc2c(c1)S(=O)(=O)NC2=O,T/C,[18],95 % of control
same,T/C,[16],99 % of control
same,T/C,[17],101 % of control
CCc1ccc(NC2=NCCO2)cc1,T/C,[7],100 % of control
same,T/C,[20],105 % of control
same,T/C,[21],100 % of control
O=C(O)c1ccccc1C(=O)O.[Cu+2].[NH-]CCC[NH-],T/C,"dose: 12.5 mg/kg/injection, schedule: Q04DX002 (ip), vehicle: saline with Tween-80",115 % of control
COc1cc(OC)c2c3c1CCC(O)=C3C(=O)OC2,T/C,"dose: 4.38 mg/kg/injection, schedule: Q01DX005 (ip), vehicle: Klucel (hydroxypropylcellulose) (HPC)",94 % of control
same,T/C,"dose: 8.75 mg/kg/injection, schedule: Q01DX005 (ip), vehicle: Klucel (hydroxypropylcellulose) (HPC)",94 % of control
same,T/C,"dose: 17.5 mg/kg/injection, schedule: Q01DX005 (ip), vehicle: Klucel (hydroxypropylcellulose) (HPC)",94 % of control
O=C(O)C(=O)O.OO.OO.OO.[Nb],T/C,[14],123 % of control
same,T/C,"dose: 100.0 mg/kg/injection, schedule: Q04DX003 (ip), vehicle: saline",100 % of control
CCCCCCCCCCCCC[N+](C)([O-])CCCCCC[N+](C)([O-])CCCCCCCCCCCCC (stereo not drawn),T/C,[24],100 % of control
same,T/C,[25],93 % of control
same,T/C,[19],101 % of control and 93 % of control
CCCn1c(O)c(C=N)c(=O)[nH]c1=O,T/C,[22],87 % of control
same,T/C,"dose: 200.0 mg/kg/injection, schedule: Q01DX009 (ip), vehicle: saline with Tween-80",95 % of control
CC(=O)OCC1OC(N(O)Cc2ccccc2)C(OC(C)=O)C(OC(C)=O)C1OC(C)=O (stereo not drawn),T/C,[8],100 % of control
same,T/C,[9],95 % of control
same,T/C,[10],86 % of control
